Reference: US8729014B2, “Specific HCV NS3 protease inhibitors” (RFS Pharma, LLC, priority 2010, dated 2014)

Tests used:
[1] = tested on: cellular rRNA (cytotoxicity marker); assay: HCV replicon assay, cytotoxicity by rRNA; assay type: cell-based; settings: human, Huh 7 Clone B cells containing HCV replicon RNA; rRNA, Huh 7 Clone B cells
Experimental: (§1) Huh 7 Clone B cells containing HCV replicon RNA would be seeded in a 96-well plate at 5000 cells/well, and the compounds tested at 10 μM in triplicate immediately after seeding. Following five days incubation (37° C., 5% CO2), total cellular RNA was isolated by using versaGene RNA purification kit from Gentra. Replicon RNA and an internal control (TaqMan rRNA control reagents, Applied Biosystems) were amplified in a single step multiplex Real Time RT-PCR Assay. The antiviral effectiveness of the compounds was calculated by subtracting the threshold RT-PCR cycle of the test compound from the threshold RT-PCR cycle of the no-drug control (ΔCt HCV). A ΔCt of 3.3 equals a 1-log reduction (equal to 90% less starting material) in Replicon RNA levels. The cytotoxicity of the compounds was also calculated by using the ΔCt rRNA values. (2′-Me-C) was used as the control. To determine EC90 and IC50 values^2, ΔCt: values were first converted into fraction of starting material^3 and then were used to calculate the % inhibition.

[2] = tested on: Huh 7 Clone B cells (rRNA); assay: HCV replicon assay, cytotoxicity by rRNA; assay type: cell-based; settings: five days
Experimental: as §1

[3] = tested on: CEM (human lymphoblastoid) cells; assay: Cytotoxicity assay in CEM cells; assay type: cell-based; settings: Homo sapiens, CCRF-CEM, 100 μM
Experimental: (§2) The toxicity of the compounds was assessed in Vero, human PBM, CEM (human lymphoblastoid), MT-2, and HepG2 cells, as described previously (see Schinazi R. F., Sommadossi J.-P., Saalmann V., Cannon D. L., Xie M.-Y., Hart G. C., Smith G. A. & Hahn E. F. Antimicrob. Agents Chemother. 1990, 34, 1061-67). Cycloheximide was included as positive cytotoxic control, and untreated cells exposed to solvent were included as negative controls. The cytotoxicity IC50 was obtained from the concentration-response curve using the median effective method described previously (see Chou T.-C. & Talalay P. Adv. Enzyme Regul. 1984, 22, 27-55; Belen'kii M. S. & Schinazi R. F. Antiviral Res. 1994, 25,1-11).

[4] = Cytotoxicity assay in CEM cells; assay type: cell-based, human; settings: human, CEM (human lymphoblastoid) cells
Experimental: as §2

With C=C[C@@H]1C[C@]1(NC(=O)[C@@H]1C[C@@H](OC(=O)N2Cc3cccc(F)c3C2)CN1C(=O)[C@@H](NC(=O)OC(C)(C)C)C(C)(C)C)C(=O)NS(=O)(=O)C1CC1 [Compound 10] the CC50 at 5 days [1] was over 0.3 µM, the “DCt rRNA” value ([2]; Conc 0.01 μM) was −0.21 and the “rRNA (% inhibition)” value ([2]; Conc 0.01 μM) was −15.99. For the same compound, the “DCt rRNA” value ([2]; Conc 0.03 μM) was −0.49, the “rRNA (% inhibition)” value ([2]; Conc 0.03 μM) was −40.10 and the “DCt rRNA” value ([2]; Conc 0.1 μM) was −0.09. The “rRNA (% inhibition)” value ([2]; Conc 0.1 μM) was −6.27, the “DCt rRNA” value ([2]; Conc 0.3 μM) was 0.14 and the “rRNA (% inhibition)” value ([2]; Conc 0.3 μM) was 9.35. For the same compound, the inhibition at 100 µM [3] was 11% and the IC50 [4] was over 100 µM.
